Test results reported in patent US20070037825A1, “Enhancing the effect of radioimmunotherapy in the treatment of tumors” (priority 2002, published 2007).
Structures can show the parent of a compound that is named as a salt. Marks after values point to notes of the source that are not given here.

Key:
LS174T cells = assay: Effect of COMPOUND I mesylate on radiosensitivity of in vitro grown cells; assay type: cell-based, human
LS174T SQ xenografts = assay: Effect of COMPOUND I on radiosensitivity of adenocarcinoma xenografts (external radiation); settings: P=0.127, Mantel-Cox logrank analysis
[1] = system: LS174T human colorectal adenocarcinoma xenografts; assay: Radioimmunotherapy of SQ LS174T xenografts in athymic mice, with or without COMPOUND I mesylate; settings: for Relative tumor growth: relative to no treatment = 1

Which “effect on radiosensitivity, combined with radiation” value (LS174T cells; monolayer, irradiation 1.95 Gy/min, total doses 1 Gy and 6 Gy) does the source give for `Cc1ccc(NC(=O)c2ccc(CN3CCN(C)CC3)cc2)cc1Nc1nccc(-c2cccnc2)n1` [COMPOUND I mesylate] here?
Its value is “not sufficient in vitro to synchronize all cells”.

What about the “effect on cell cycle” value (LS174T cells; pharmacologically relevant concentrations) of the same molecule?
Its value is “Arrest of LS174T cells in the G1 phase”.

What about the “difference between radiation plus COMPOUND I mesylate and radiation only” value (LS174T SQ xenografts) of the same molecule?
The value was “no statistical differences”.

What about the “Tq (days)” value ([1]; quadrupling time calculated on day 10 (*), COMPOUND I mesylate PO BID 2 mg/mouse/day) of the same molecule?
Its value is 7.75* days.

And the Relative tumor growth [1]?
Its Relative tumor growth is 1.

B1: ^131I-B72.3: iodine-131 labeled anti-TAG72 monoclonal antibody B72.3 (radioimmunoconjugate) (conjugate, chains of the INN, looked up)
VH: QVQLQQSDAELVKPGASVKISCKASGYTFTDHAIHWAKQKPEQGLEWIGYISPGNDDIKYNEKFKGKATLTADKSSSTAYMQLNSLTSEDSAVYFCKRSYYGHWGQGTTLTVSS
VL: DIQMTQSPASLSVSVGETVTITCRASENIYSNLAWYQQKQGKSPQLLVYAATNLADGVPSRFSGSGSGTQYSLKINSLQSEDFGSYYCQHFWGTPYTFGGGTRLEIK
modifications: iodine-131 label
Which “effect of combined treatment with COMPOUND I mesylate in vitro” value (LS174T cells; ^131I-labeled antibody plus COMPOUND I mesylate) does the source give for B1 here?
Its value is “neither additive nor synergistic effects are measurable”.

What about the tumor response ([1]; escalating doses) of the same molecule?
The tumor response was “cures and tumor growth arrest”.

And the “Tq (days)” value ([1]; quadrupling time calculated on day 28 (**) after 0.25 mCi ^131I-B72.3 IV)?
The value was 18.95** days.

And the Relative tumor growth [1]?
The Relative tumor growth was 2.4.

What about the tumor response ([1]; single dose of 0.5 mCi or similar doses) of the same molecule?
Its tumor response is “growth delay but no cures”.
